Values quoted from earlier work, collected in patent publication US20070254006A1, “Medical Devices and Coatings with Non-Leaching Antimicrobial Peptides” (Massachusetts Institute of Technology, priority 2006, published 2007).

Experiments:
avidin and streptavidin = details: interaction with avidin and streptavidin
Staphylococcus aureus = details: Dacron graft soaked in peptide solution before implanting in a rat, bacterial challenge

Row | Compound | Ka (avidin and streptavidin) | incidence of device colonization and infection (Staphylococcus aureus)
1 | O=C(O)CCCC[C@@H]1SC[C@@H]2NC(=O)N[C@@H]21 [Biotin] | 10^15 M^−1 | 
2 | dermaseptin |  | reduces the incidence of device colonization and infection
